We go through 1 compound from patent US7709242B2, “L-tyrosine producing bacterium and a method for producing L-tyrosine” (Ajinomoto Co., Inc., priority 2004, dated 2010).

Assay [1] concerns the target T1, PDH containing the T260I mutation (Escherichia coli, UniProt P07023, T260I).
T1 construct: EcoRI-CpoI fragment containing no mutation excised from pSTVtyrA(W) was connected to the vector fragment of EcoRI-CpoI-digested pSTVtyrA(mut); made in house; host or cells: Escherichia coli W3110 ΔtyrR,tyrA, plasmid pSTVtyrA(T260I); crude enzyme solution
In words: PDH activity in crude enzyme solution at tyrosine concentrations, T260I mutant. Format: biochemical. The following applies: in the presence of 800 μM tyrosine; strain harboring PDH with T260I. As for the experimental part: (§1) A strain containing mutant 7 (257/265), a strain containing mutant 6 (254/269), both shown in Table 3, and a strain containing the T260I mutation shown in Table 2 were cultured at 37° C. for 15 hours in LB medium, and after the culture, the resulting culture was centrifuged to collect bacterial cells. Then, after the bacterial cells were washed twice with 50 mM Tris-HCl (pH 7.5) and suspended in 50 mM Tris-HCl (pH 7.5) containing 20% glycerol on ice, a crude enzyme solution was prepared by repeating 30 second-ultrasonication 80 times. PDH activity was measured according to the method described in Biochemistry. 1990 Nov. 6; 29(44): 10245-54. That is, a reaction was carried out at 30° C. for 10 minutes in 50 mM Tris-HCl (pH 7.5) containing 0.25 mM prephenate, 1 mM EDTA, 1 mM DTT, and 2 mM NAD^+, and NADH was measured at an absorption wavelength of 340 nm. A protein assay was carried out by the Bradford method. […] However, the PDH activity of the strain harboring the PDH with the 257/265 mutation could not be measured even though the L-tyrosine yield was high.

For assay [2], the target named is T2, PDH containing the 254/269 mutations (mutant 6, A254G/E269Y) (Escherichia coli, UniProt P07023, A254G/E269Y).
T2 construct: amplify a full length fragment of the tyrA gene which has mutations introduced; made in house; host or cells: Escherichia coli W3110 ΔtyrR,tyrA, plasmid pSTV28 (SmaI site); crude enzyme solution
T2 sequence (P07023 whole entry A254G/E269Y, the tested form may be a part): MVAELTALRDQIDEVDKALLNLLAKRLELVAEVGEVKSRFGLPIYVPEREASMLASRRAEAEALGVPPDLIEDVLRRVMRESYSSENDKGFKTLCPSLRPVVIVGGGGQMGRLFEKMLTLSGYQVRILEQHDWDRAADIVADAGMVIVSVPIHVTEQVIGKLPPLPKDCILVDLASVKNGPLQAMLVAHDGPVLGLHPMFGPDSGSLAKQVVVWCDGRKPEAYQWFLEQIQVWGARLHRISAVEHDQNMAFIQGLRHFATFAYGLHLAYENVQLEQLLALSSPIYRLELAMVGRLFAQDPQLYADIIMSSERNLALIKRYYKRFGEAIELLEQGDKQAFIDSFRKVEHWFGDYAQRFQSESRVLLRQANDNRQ
The experiment in a line: PDH activity in crude enzyme solution at tyrosine concentrations, 254/269 mutant. Format: biochemical. The following applies: in the presence of 800 μM tyrosine; strain harboring PDH with 254/269 mutations. As for the experimental part:
as §1

In assay [3] the target is PDH (encoded by the tyrA gene) (Escherichia coli, UniProt P07023). The conditions noted are these: Biochemistry. 1985 Feb. 26; 24(5): 1116; cited from earlier work.
PDH (encoded by the tyrA gene), sequence (P07023 whole entry): as the sequence (P07023 whole entry A254G/E269Y, the tested form may be a part) above, with G254A, Y269E counted along it
For assay [4], the target named is T3, wild-type PDH (prephenate dehydrogenase) (Escherichia coli, UniProt P07023).
T3 construct: made in house; host or cells: Escherichia coli (crude enzyme solution of sonicated cells)
T3 sequence (P07023 whole entry): as the sequence (P07023 whole entry A254G/E269Y, the tested form may be a part) above, with G254A, Y269E counted along it
In words: PDH activity in crude enzyme solution at L-tyrosine concentrations, wild-type PDH. Format: biochemical. The conditions noted are these: in the presence of 100 μM L-tyrosine; strain carrying wild-type PDH. From the text:
Such mutant PDH can be obtained by introducing amino acid substitutions into wild-type PDHs and selecting a PDH which is not subject to feedback inhibition by L-tyrosine due to the amino acid substitution-introduced PDHs. Specifically, nucleotide substitutions causing amino acid substitutions are introduced into a DNA encoding PDH (e.g., SEQ ID NO: 1) by the use of, for example, site-directed mutagenesis using PCR or the like, and an Escherichia bacterium, preferably an Escherichia bacterium in which a wild-type PDH gene is disrupted is transformed with the mutated DNA. The PDH activity of the bacterium is then measured in the presence and absence of L-tyrosine, and a strain in which PDH is resistant to feedback inhibition by L-tyrosine is selected. PDH activity can be measured according to the method described in Biochemistry. 1990 Nov. 6; 29(44): 10245-54.
W3110 ΔtyrR,tyrA/pSTVtyrA-1, -2, -5, -10, and -24 strains were cultured at 37° C. for 15 hours in a LB medium, respectively and each culture solution was centrifuged to collect bacterial cells. […] Then, the PDH activity was measured according to the method described in Biochemistry. […] That is, the enzyme reaction was performed at 30° C. for 10 minutes in 50 mM Tris-HCl (pH 7.5) containing 0.25 mM prephenate, 1 mM EDTA, 1 mM DTT, and 2 mM NAD, and the generated NADH was measured at an absorption wavelength of 340 nm. […]

Assay [5] deals with T4, PDH of W3110 ΔtyrR,tyrA/pSTVtyrA-1 strain (tyrA(mut), P100S/T260I) (Escherichia coli, UniProt P07023, P100S/T260I).
T4 construct: The resulting mutated fragment was then ligated to pSTV28; made in house; host or cells: Escherichia coli W3110 ΔtyrR,tyrA (endogenous tyrA disrupted), plasmid pSTV28; crude enzyme solution
T4 sequence (P07023 whole entry P100S/T260I, the tested form may be a part): as the sequence (P07023 whole entry A254G/E269Y, the tested form may be a part) above, with P100S, G254A, T260I, Y269E counted along it
In words: PDH activity in crude enzyme solution at L-tyrosine concentrations, pSTVtyrA-1 strain. It is filed as biochemical. The conditions noted are these: in the presence of 800 μM L-tyrosine. As for the experimental part: (§2) W3110 ΔtyrR,tyrA/pSTVtyrA-1, -2, -5, -10, and -24 strains were cultured at 37° C. for 15 hours in a LB medium, respectively and each culture solution was centrifuged to collect bacterial cells. Next, after the bacterial cells were washed twice with 50 mM Tris-HCl (pH 7.5) and suspended in 50 mM Tris-HCl (pH 7.5) containing 20% glycerol on ice, a crude enzyme solution was prepared by repeating 30 second-ultrasonication 80 times. Then, the PDH activity was measured according to the method described in Biochemistry. 1990 Nov. 6; 29(44): 10245-54. That is, the enzyme reaction was performed at 30° C. for 10 minutes in 50 mM Tris-HCl (pH 7.5) containing 0.25 mM prephenate, 1 mM EDTA, 1 mM DTT, and 2 mM NAD, and the generated NADH was measured at an absorption wavelength of 340 nm. A protein assay was carried out by the Bradford method. […] Hereinafter, this tyrA gene inserted into pSTVtyrA-1 is referred to as tyrA(mut).
The nucleotide sequence of the tyrA(mut) gene was determined according to a standard method. In this mutant, proline at position 100 and threonine at position 260 were replaced by serine and isoleucine, respectively. […] The obtained strains were cultured and L-tyrosine production was evaluated. […]

In assay [6] the test system is PDH of strains carrying pSTVtyrA-2, -5, -10, and -24. In words: PDH activity in crude enzyme solution at L-tyrosine concentrations, pSTVtyrA-2, -5, -10, -24 strains. Format: biochemical, Escherichia coli. The following applies: in the presence of 100 μM L-tyrosine. As for the experimental part:
as §2

T1 sequence (P07023 whole entry T260I, the tested form may be a part): as the sequence (P07023 whole entry A254G/E269Y, the tested form may be a part) above, with G254A, T260I, Y269E counted along it

As to `N[C@@H](Cc1ccc(O)cc1)C(=O)O` [L-tyrosine], the “inhibition of PDH activity” value is reported as “almost no inhibition” in assay [1]; “almost no inhibition” in assay [2]; “strongly inhibited” in assay [4]; “almost no inhibition” in assay [5]; “strongly inhibited” in assay [6]. Besides, the “concentration of L-tyrosine at which PDH is inhibited (as low as)” value in assay [3] was 300 µM.
